# According to the kinase profiling compilation of Christmann-Franck et al. (2016):
# What was measured:
# [1] = target: ACVR1B (human) (UniProt P36896); test: KINOMEscan competition binding; details: compound 10.0 µM
# [2] = target: ANKK1 (human) (UniProt Q8NFD2); test: KINOMEscan competition binding; details: compound 10.0 µM
# [3] = target: BMPR2 (human) (UniProt Q13873); test: KINOMEscan competition binding; details: compound 10.0 µM
# [4] = target: BMX (human) (UniProt P51813); test: KINOMEscan competition binding; details: compound 10.0 µM
# [5] = target: CAMKK2 (human) (UniProt Q96RR4); test: KINOMEscan competition binding; details: compound 10.0 µM
# [6] = target: CDC42BPA (human) (UniProt Q5VT25); test: KINOMEscan competition binding; details: compound 10.0 µM
# [7] = target: CDK14 (human) (UniProt O94921); test: KINOMEscan competition binding; details: compound 10.0 µM
# [8] = target: CDK15 (human) (UniProt Q96Q40); test: KINOMEscan competition binding; details: compound 10.0 µM
# [9] = target: CDK16 (human) (UniProt Q00536); test: KINOMEscan competition binding; details: compound 10.0 µM
# [10] = target: CLK2 (human) (UniProt P49760); test: KINOMEscan competition binding; details: compound 10.0 µM
# [11] = target: CRK2 (P.falciparum) (UniProt P61075); test: KINOMEscan competition binding; details: compound 10.0 µM
# [12] = target: CSNK1G3 (human) (UniProt Q9Y6M4); test: KINOMEscan competition binding; details: compound 10.0 µM
# [13] = target: CSNK2A2 (human) (UniProt P19784); test: KINOMEscan competition binding; details: compound 10.0 µM
# [14] = target: EPHA4 (human) (UniProt P54764); test: KINOMEscan competition binding; details: compound 10.0 µM
# [15] = target: FGFR2 (human) (UniProt P21802); test: KINOMEscan competition binding; details: compound 10.0 µM
# [16] = target: FRK (human) (UniProt P42685); test: KINOMEscan competition binding; details: compound 10.0 µM
# [17] = target: GSK3B (human) (UniProt P49841); test: KINOMEscan competition binding; details: compound 10.0 µM
# Sequence of GSK3B (human) (P49841 whole entry, looked up): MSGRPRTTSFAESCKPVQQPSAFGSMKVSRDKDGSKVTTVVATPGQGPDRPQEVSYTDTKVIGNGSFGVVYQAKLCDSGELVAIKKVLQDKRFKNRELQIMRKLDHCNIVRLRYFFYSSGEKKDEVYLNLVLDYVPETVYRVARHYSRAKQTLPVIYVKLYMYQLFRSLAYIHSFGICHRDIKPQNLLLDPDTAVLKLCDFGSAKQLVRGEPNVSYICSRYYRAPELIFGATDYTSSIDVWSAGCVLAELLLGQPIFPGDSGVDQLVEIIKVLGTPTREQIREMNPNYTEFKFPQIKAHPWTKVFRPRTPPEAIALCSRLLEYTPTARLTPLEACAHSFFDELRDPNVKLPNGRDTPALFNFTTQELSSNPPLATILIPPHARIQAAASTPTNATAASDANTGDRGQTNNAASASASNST
# [18] = target: JAK1 JH2 pseudokinase (human) (UniProt P23458); test: KINOMEscan competition binding; details: compound 10.0 µM
# Sequence of JAK1 JH2 pseudokinase (human) (P23458 whole entry, looked up): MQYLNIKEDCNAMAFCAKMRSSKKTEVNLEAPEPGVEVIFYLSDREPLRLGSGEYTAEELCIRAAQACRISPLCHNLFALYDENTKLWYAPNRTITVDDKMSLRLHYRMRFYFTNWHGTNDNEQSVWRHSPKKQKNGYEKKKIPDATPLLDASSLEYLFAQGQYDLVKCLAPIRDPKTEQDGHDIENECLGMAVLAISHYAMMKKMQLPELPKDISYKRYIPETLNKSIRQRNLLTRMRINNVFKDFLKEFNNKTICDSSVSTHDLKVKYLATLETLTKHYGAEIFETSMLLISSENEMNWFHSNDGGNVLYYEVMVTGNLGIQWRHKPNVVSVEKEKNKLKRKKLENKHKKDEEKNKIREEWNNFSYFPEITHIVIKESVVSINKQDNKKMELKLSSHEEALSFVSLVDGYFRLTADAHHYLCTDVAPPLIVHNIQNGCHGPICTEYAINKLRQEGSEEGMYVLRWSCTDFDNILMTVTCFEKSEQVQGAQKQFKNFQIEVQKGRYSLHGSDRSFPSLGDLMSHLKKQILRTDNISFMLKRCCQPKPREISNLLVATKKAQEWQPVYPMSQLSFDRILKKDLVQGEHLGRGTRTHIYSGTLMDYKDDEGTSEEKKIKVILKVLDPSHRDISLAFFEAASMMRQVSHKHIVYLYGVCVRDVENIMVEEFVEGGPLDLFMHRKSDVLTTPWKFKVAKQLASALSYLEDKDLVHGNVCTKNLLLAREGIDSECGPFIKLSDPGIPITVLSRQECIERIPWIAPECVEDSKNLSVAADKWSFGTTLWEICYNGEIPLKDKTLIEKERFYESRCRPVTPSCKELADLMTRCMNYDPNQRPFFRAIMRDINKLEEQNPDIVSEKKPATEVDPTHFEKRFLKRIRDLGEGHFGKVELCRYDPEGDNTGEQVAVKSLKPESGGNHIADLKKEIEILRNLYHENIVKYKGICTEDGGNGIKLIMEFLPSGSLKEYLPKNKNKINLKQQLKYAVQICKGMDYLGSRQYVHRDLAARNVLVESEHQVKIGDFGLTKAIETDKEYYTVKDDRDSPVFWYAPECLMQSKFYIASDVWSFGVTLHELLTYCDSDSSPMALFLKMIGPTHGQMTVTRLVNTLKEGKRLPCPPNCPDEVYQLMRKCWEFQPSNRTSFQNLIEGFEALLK
# [19] = target: KIT (human) (UniProt P10721); test: KINOMEscan competition binding; details: compound 10.0 µM
# Sequence of KIT (human) (P10721 whole entry, looked up): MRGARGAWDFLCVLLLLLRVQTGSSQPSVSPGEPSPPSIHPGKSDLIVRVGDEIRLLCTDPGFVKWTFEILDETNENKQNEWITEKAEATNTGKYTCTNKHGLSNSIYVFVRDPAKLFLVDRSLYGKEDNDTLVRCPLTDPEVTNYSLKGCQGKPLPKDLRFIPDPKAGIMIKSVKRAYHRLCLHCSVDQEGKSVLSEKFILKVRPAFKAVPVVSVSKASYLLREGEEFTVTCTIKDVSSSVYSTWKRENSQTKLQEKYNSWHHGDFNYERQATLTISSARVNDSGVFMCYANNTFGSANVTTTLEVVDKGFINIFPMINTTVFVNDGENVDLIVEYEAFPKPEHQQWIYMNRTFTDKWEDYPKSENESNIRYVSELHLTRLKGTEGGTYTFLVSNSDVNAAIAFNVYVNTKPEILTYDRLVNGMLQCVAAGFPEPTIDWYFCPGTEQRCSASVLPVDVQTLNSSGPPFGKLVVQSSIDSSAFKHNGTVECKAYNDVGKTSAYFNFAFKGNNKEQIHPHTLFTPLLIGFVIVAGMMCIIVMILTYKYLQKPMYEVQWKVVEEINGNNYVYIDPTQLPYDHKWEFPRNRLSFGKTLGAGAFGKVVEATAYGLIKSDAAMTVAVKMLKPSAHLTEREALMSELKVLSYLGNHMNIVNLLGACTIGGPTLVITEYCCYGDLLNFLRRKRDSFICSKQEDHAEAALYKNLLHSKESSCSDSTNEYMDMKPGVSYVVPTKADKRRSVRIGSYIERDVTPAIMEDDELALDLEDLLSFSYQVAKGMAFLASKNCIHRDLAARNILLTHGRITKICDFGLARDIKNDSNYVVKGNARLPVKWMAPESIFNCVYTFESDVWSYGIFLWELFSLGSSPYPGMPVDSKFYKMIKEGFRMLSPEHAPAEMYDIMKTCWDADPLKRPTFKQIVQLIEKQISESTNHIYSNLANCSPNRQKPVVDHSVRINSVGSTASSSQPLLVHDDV
# [20] = target: LTK (human) (UniProt P29376); test: KINOMEscan competition binding; details: compound 10.0 µM
# [21] = target: MAP2K1 (human) (UniProt Q02750); test: KINOMEscan competition binding; details: compound 10.0 µM
# [22] = target: MAPK1 (human) (UniProt P28482); test: KINOMEscan competition binding; details: compound 10.0 µM
# [23] = target: MAPK7 (human) (UniProt Q13164); test: KINOMEscan competition binding; details: compound 10.0 µM
# [24] = target: MAPK9 (human) (UniProt P45984); test: KINOMEscan competition binding; details: compound 10.0 µM
# [25] = target: MYLK4 (human) (UniProt Q86YV6); test: KINOMEscan competition binding; details: compound 10.0 µM
# [26] = target: NEK2 (human) (UniProt P51955); test: KINOMEscan competition binding; details: compound 10.0 µM
# [27] = target: NEK9 (human) (UniProt Q8TD19); test: KINOMEscan competition binding; details: compound 10.0 µM
# Sequence of NEK9 (human) (Q8TD19 whole entry, looked up): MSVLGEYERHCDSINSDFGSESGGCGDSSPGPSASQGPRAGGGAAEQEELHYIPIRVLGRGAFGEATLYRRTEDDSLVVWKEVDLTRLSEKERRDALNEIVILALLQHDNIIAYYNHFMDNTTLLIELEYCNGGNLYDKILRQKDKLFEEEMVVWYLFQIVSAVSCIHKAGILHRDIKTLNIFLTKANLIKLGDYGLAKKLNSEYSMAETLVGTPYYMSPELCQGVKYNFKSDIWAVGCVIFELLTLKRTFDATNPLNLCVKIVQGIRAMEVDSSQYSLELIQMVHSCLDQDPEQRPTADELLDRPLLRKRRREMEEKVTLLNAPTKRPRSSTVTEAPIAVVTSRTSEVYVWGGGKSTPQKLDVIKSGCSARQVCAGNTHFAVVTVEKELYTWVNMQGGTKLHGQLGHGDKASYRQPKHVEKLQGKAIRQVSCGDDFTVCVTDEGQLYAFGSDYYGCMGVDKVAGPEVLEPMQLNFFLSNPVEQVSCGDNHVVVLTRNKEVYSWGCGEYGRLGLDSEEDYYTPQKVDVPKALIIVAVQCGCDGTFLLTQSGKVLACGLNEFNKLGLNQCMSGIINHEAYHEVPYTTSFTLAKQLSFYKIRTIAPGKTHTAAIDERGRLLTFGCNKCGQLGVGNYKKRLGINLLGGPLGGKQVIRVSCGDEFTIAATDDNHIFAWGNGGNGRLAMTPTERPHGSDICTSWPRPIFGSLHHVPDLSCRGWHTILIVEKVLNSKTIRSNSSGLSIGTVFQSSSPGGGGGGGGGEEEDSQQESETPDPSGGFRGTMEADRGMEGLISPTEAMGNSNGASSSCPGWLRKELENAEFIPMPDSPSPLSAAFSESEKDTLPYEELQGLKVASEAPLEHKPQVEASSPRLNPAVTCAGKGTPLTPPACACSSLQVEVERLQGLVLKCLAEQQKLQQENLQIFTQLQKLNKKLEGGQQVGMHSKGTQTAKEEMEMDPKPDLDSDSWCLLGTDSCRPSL
# [28] = target: PDGFRB (human) (UniProt P09619); test: KINOMEscan competition binding; details: compound 10.0 µM
# [29] = target: PDPK1 (human) (UniProt O15530); test: KINOMEscan competition binding; details: compound 10.0 µM
# [30] = target: PIP4K2B (human) (UniProt P78356); test: KINOMEscan competition binding; details: compound 10.0 µM
# [31] = target: PKN3 (M.tuberculosis) (UniProt Q6P5Z2); test: KINOMEscan competition binding; details: compound 10.0 µM
# [32] = target: PRKCQ (human) (UniProt Q04759); test: KINOMEscan competition binding; details: compound 10.0 µM
# [33] = target: RIPK2 (human) (UniProt O43353); test: KINOMEscan competition binding; details: compound 10.0 µM
# Sequence of RIPK2 (human) (O43353 whole entry, looked up): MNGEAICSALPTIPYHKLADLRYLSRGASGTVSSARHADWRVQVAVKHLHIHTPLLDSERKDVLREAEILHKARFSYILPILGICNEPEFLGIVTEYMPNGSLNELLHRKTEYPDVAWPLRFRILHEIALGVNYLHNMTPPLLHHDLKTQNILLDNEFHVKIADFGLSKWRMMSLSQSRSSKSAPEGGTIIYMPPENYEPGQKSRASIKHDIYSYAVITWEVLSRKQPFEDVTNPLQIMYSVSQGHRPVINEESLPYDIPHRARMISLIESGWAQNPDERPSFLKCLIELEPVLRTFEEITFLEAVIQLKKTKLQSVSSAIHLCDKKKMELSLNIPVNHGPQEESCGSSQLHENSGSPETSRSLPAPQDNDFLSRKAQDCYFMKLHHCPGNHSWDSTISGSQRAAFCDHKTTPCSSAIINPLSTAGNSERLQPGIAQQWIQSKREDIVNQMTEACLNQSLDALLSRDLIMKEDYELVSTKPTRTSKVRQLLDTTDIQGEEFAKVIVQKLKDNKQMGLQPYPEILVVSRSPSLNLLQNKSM
# [34] = target: RPS6KA1 KD2 (human) (UniProt Q15418); test: KINOMEscan competition binding; details: compound 10.0 µM
# [35] = target: RPS6KA3 KD1 (human) (UniProt P51812); test: KINOMEscan competition binding; details: compound 10.0 µM
# [36] = target: RPS6KA6 KD1 (human) (UniProt Q9UK32); test: KINOMEscan competition binding; details: compound 10.0 µM
# [37] = target: STK17B (human) (UniProt O94768); test: KINOMEscan competition binding; details: compound 10.0 µM
# [38] = target: TAOK3 (human) (UniProt Q9H2K8); test: KINOMEscan competition binding; details: compound 10.0 µM
# [39] = target: TTK (human) (UniProt P33981); test: KINOMEscan competition binding; details: compound 10.0 µM
# Sequence of TTK (human) (P33981 whole entry, looked up): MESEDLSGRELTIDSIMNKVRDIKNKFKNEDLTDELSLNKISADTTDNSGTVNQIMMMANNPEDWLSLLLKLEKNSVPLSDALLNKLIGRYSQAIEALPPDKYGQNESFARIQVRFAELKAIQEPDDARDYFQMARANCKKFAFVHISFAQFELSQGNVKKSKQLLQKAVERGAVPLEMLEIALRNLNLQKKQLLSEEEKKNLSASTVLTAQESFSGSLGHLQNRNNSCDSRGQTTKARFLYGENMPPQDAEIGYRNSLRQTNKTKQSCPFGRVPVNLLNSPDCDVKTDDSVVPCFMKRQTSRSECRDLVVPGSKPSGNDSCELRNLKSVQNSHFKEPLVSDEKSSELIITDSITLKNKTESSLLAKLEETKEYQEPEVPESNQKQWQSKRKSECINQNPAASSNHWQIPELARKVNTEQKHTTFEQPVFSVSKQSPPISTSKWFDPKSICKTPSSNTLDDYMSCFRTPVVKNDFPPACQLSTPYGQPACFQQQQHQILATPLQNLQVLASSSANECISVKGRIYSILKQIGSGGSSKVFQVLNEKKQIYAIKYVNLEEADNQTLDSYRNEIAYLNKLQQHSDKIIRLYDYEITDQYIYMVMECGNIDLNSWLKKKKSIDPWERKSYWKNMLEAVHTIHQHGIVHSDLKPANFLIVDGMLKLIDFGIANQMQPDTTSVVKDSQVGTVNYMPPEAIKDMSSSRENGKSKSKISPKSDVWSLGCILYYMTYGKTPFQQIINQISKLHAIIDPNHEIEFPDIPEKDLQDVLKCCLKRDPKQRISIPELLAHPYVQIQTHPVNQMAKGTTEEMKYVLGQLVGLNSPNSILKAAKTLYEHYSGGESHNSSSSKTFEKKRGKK
# [40] = target: PI4KA (human) (UniProt P42356); test: SelectScreen, TR FRET
# [41] = target: PIK3C3 (human) (UniProt Q8NEB9); test: SelectScreen, TR FRET
# [42] = target: PRKDC (human) (UniProt P78527); test: SelectScreen, TR FRET
smiles,measurement,setting,value
Cc1cc([C@@H](C)Nc2ccccc2C(=O)O)c2nc(N3CCOCC3)cc(=O)n2c1,"kinase still bound, per cent of control",[1],100%
same,"kinase still bound, per cent of control",[2],100%
same,"kinase still bound, per cent of control",[3],84%
same,"kinase still bound, per cent of control",[4],82%
same,"kinase still bound, per cent of control",[5],72%
same,"kinase still bound, per cent of control",[6],100%
same,"kinase still bound, per cent of control",[7],100%
same,"kinase still bound, per cent of control",[8],100%
same,"kinase still bound, per cent of control",[9],100%
same,"kinase still bound, per cent of control",[10],100%
same,"kinase still bound, per cent of control",[11],92%
same,"kinase still bound, per cent of control",[12],95%
same,"kinase still bound, per cent of control",[13],64%
same,"kinase still bound, per cent of control",[14],91%
same,"kinase still bound, per cent of control",[15],100%
same,"kinase still bound, per cent of control",[16],47%
same,"kinase still bound, per cent of control",[17],100%
same,"kinase still bound, per cent of control",[18],100%
same,"kinase still bound, per cent of control",[19],69%
same,"kinase still bound, per cent of control",[20],61%
same,"kinase still bound, per cent of control",[21],100%
same,"kinase still bound, per cent of control",[22],100%
same,"kinase still bound, per cent of control",[23],100%
same,"kinase still bound, per cent of control",[24],69%
same,"kinase still bound, per cent of control",[25],75%
same,"kinase still bound, per cent of control",[26],100%
same,"kinase still bound, per cent of control",[27],94%
same,"kinase still bound, per cent of control",[28],58%
same,"kinase still bound, per cent of control",[29],100%
same,"kinase still bound, per cent of control",[30],84%
same,"kinase still bound, per cent of control",[31],100%
same,"kinase still bound, per cent of control",[32],100%
same,"kinase still bound, per cent of control",[33],52%
same,"kinase still bound, per cent of control",[34],76%
same,"kinase still bound, per cent of control",[35],100%
same,"kinase still bound, per cent of control",[36],80%
same,"kinase still bound, per cent of control",[37],100%
same,"kinase still bound, per cent of control",[38],95%
same,"kinase still bound, per cent of control",[39],88%
same,IC50,[40],8.83 µM
same,IC50,[41],3.39 µM
same,IC50,[42],0.0537 µM
